{
  "source": "patent US11337971B2",
  "about": "“Dopamine D3 receptor selective antagonists/partial agonists and uses thereof” (THE UNITED STATES OF AMERICA, AS REPRESENTED BY THE …, priority 2018, dated 2022)",
  "key": {"Male Long-Evans rats [1]": {"test_system": "Male Long-Evans rats", "assay": "Oxycodone self-administration under progressive ratio (PR) reinforcement", "details": "5, 15, 25 mg/kg, i.p."}, "human dopamine D3R": {"biological_target": "human dopamine D3R (Homo sapiens (Human), UniProt P35462)", "sequence (P35462 whole entry)": "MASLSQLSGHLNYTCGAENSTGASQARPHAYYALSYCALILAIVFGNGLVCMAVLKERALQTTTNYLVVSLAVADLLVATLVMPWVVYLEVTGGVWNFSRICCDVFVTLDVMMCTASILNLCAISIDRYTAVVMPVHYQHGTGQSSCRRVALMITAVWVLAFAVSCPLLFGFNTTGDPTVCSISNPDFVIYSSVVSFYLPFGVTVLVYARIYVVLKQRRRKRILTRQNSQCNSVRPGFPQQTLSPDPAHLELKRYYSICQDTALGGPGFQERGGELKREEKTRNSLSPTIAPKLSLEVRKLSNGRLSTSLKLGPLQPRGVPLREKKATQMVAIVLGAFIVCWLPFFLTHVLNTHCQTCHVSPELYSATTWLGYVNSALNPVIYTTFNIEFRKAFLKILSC", "assay": "D3R mitogenesis assay: stimulation or inhibition of quinpirole-stimulated mitogenesis in CHO cells", "type": "cell-based", "details": "Table 2a; inhibition of quinpirole-stimulated mitogenesis; read-out: Antagonist IC50 ± SEM"}, "human D4R": {"biological_target": "human D4R (Homo sapiens (Human), UniProt P21917)", "sequence (P21917 whole entry)": "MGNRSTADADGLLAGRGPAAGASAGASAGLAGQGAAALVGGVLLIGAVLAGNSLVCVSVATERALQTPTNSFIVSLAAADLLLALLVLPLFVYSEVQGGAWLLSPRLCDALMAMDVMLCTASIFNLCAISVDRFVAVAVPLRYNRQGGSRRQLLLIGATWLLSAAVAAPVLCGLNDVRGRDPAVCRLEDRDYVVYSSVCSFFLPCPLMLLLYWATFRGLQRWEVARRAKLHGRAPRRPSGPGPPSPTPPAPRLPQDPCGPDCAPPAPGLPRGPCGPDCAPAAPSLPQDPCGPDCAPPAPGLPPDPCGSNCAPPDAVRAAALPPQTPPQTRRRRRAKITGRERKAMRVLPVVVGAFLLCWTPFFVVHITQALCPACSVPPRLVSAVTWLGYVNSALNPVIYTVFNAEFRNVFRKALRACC", "assay": "Radioligand competition binding, [3H]N-methylspiperone, HEK293 membranes expressing human D4R", "details": "Table 1A; μM; read-out: D4R Ki", "outline": "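HEK293 membranes with human D4R (20 μg protein) and 0.4 nM [3H]N-methylspiperone in EBSS with sodium metabisulfite, 1 h at room temperature, filtration read-out. Compounds 10 μM to 10 pM; nonspecific binding with 10 μM butaclamol. Ki by Cheng-Prusoff from IC50, at least three experiments.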"}, "Male Long-Evans rats [2]": {"test_system": "Male Long-Evans rats", "assay": "Maintenance of oxycodone self-administration and oxycodone-seeking after oxycodone was replaced by saline", "type": "in vivo, rat", "details": "i.p.", "experimental": "Four groups of rats (n=7/group) were first trained to self-administer oxycodone at a dose of 100 μg/kg/infusion for 2 weeks followed by 50 μg/kg/infusion for the rest of the training sessions and for the test session. The daily self-administration of oxycodone at the low dose continued until the average oxycodone infusions/session varied less than 10% over 3 consecutive sessions (normally 6-10 sessions were required to meet this criterion of stability). On the following test day, the groups of rats were first systemically injected with either vehicle or a dose of compound (±)-29 (5, 15 or 25 mg/kg, i.p.), and 15 min later, the animals were allowed to self-administer oxycodone.\nFollowing completion of the self-administration testing, the rats continued to self-administer oxycodone (50 μg/kg/infusion) for additional 4 sessions. On the next day, the animals were re-assigned into 3 groups, and pretreated with either vehicle or 1 of the 2 doses of compound (±)-29 (5 or 15 mg/kg). Fifteen min later, the animals were placed in the chambers, and allowed to lever-press for an extinction session during which saline was substituted for […]. Other conditions remain the same as […] session."}, "mice": {"test_system": "mice", "assay": "Basal locomotor activity in mice", "type": "in vivo"}, "[3]": {"assay": "Phase I metabolic stability in rhesus monkey liver microsomes", "type": "in vitro ADME"}, "[4]": {"assay": "Phase I metabolic stability in rat liver microsomes", "type": "in vitro ADME", "details": "Rat liver microsomes", "description": "Rat Liver Microsome Metabolic Stability: Test compounds including 3-F analogues (C4a, C4b, C5a, C5b) and 29, 19 as well as the R-, S-enantiomers of C4a, C5a, 29 and 19 were screened for phase I metabolic stability in rat liver microsomes."}},
  "note": "“Also recorded” adds a separate entry of the source.",
  "data": [
    {"compound": "CCc1cc(Cl)c(OC)c(N2CCN(CC(O)CCNC(=O)c3cc4ccccc4[nH]3)CC2)c1", "note": "(racemic) [Compound 29, N-(4-(4-(3-chloro-5-ethyl-2-methoxyphenyl)piperazin-1-yl)-3-hydroxybutyl)-1H-indole-2-carboxamide]", "values": [
      {"measurement": "break-point for oxycodone self-administration under PR reinforcement", "setting": "Male Long-Evans rats [1]", "result": "significantly and dose-dependently lowers the break-point; also recorded: dose-dependently lowered the PR break-point"},
      {"measurement": "IC50", "setting": "human dopamine D3R", "result": "360 ± 100", "unit": "nM"},
      {"measurement": "Ki", "setting": "human D4R", "result": "> 100", "unit": "µM"},
      {"measurement": "oxycodone infusions during maintenance of self-administration", "setting": "Male Long-Evans rats [2]; 5-25 mg/kg", "result": "dose-dependently decreased oxycodone infusions; also recorded: dose-dependently reduced oxycodone self-administration"},
      {"measurement": "oxycodone-seeking behavior (extinction responding) when saline was substituted for oxycodone", "setting": "Male Long-Evans rats [2]; 5 or 15 mg/kg", "result": "dose-dependently inhibited oxycodone-seeking behavior; also recorded: dose-dependently reduced"},
      {"measurement": "basal locomotor activity", "setting": "mice", "result": "nether significantly affected"},
      {"measurement": "% at 0 min.", "setting": "[3]; 0 min", "result": 100, "unit": "%"},
      {"measurement": "% at 30 min.", "setting": "[3]; 30 min", "result": 79, "unit": "%"},
      {"measurement": "% at 60 min.", "setting": "[3]; 60 min", "result": 66, "unit": "%"},
      {"measurement": "% at 0 min.", "setting": "[4]; 0 min", "result": 100, "unit": "%"},
      {"measurement": "% at 30 min.", "setting": "[4]; 30 min", "result": 95, "unit": "%"},
      {"measurement": "% at 60 min.", "setting": "[4]; 60 min", "result": 85, "unit": "%"}
    ]}
  ]
}
